Patent publication US12162836B2, “N-acyl-{4-[(4-aryl-phenyl)sulfonylmethyl]piperidine} compounds and their therapeutic use” (Modern Biosciences Limited, priority 2019, dated 2024)
pIC50: −log10 of the molar value. Values after ≈ are worked out from the molar mass of the structure shown.

How the values were obtained:
[1] = Aqueous solubility in FaSSIF; assay type: physicochemical; conditions: for solubility at 16 h: kinetic from dmso stock
CYP1A2 = CYP1A2 (Homo sapiens (Human), UniProt P05177); assay: Human Cytochrome P450 Inhibition Assay (Bactosomes); assay type: in vitro ADME; conditions: recombinant enzyme
Protocol: (§1) The ability of test compounds to inhibit five of the most relevant cytochrome P450 enzymes was measured by determination of the activity of cytochrome P450 enzymes in recombinant cytochrome preparations, called Bactosomes (Cypex Ltd, Dundee, Scotland UK DD2 1 NH), in the presence of a specific probe substrate. Bactosomes are a highly efficient and cost-effective source of recombinant CYP450s which have a higher specific activity of enzyme compared to other sources, such as liver microsomes. […] The following CYP450 isoforms were assayed: CYP1A2, CYP2C9, CYP2C19, CYP2D6 and CYP3A4. The study of CYP450 inhibition potential in Bactosomes is accepted as a valuable model permitting rapid prediction of potential drug-drug interactions in vivo (see, e.g., Weaver et al., 2003).
(§2) Bactosomes were obtained from a commercial source (Cypex, Scotland, UK). Test compounds were incubated with Bactosomes at 6 concentrations. Samples were incubated for 10 minutes, after which the reaction was stopped and the samples analysed by LC-MS/MS Multiple Reaction Monitoring (MRM) for the presence/amount of substrate probe.
(§3) CYP450 enzymes (final protein 75 pmol/mL for CYP1A2; 12.5 pmol/mL for CYP2C19; and 25 pmol/mL for CYP2C9, 2D6 and 3A4), 0.1 M phosphate buffer pH 7.4, probe and test compound (final concentration 50, 15.8, 5, 1.58, 0.5 and 0.158 μM; diluted from 10 mM stock solution to give a final DMSO concentration of 1%) were pre-incubated at 37° C. for 5 minutes. The reaction was initiated by the addition of 20 μL of 10 mM NADPH in phosphate buffer. The final incubation volume was 200 μL. The following control inhibitors were used for each CYP450 inhibition assay: CYP1A2: α-naphthoflavone; CYP2C9: sulfaphenazole; CYP2C19: tranylcypromine; CYP2D6: quinidine; CYP3A4: ketoconazole.
(§4) Each compound was incubated for 10 minutes at 37° C. The reactions were stopped by the addition of methanol (final composition 1:1, aqueous: methanol). The incubation plates were shaken, chilled at […] for 2 hours, and centrifuged at 3500 rpm for 15 minutes at 4° C. to precipitate the protein.

CYP2C19 = CYP2C19 (Homo sapiens (Human), UniProt P33261); assay: as above; assay type: in vitro ADME; conditions: recombinant Bactosomes, 10 minutes
Protocol: as §1, §2, §3, §4

CYP2C9 = CYP2C9 (Homo sapiens (Human), UniProt P11712); assay: as above; assay type: in vitro ADME; conditions: recombinant Bactosomes, 10 minutes
Protocol: as §1, §2, §3, §4

CYP2D6 = CYP2D6 (Homo sapiens (Human), UniProt P10635); assay: as above; assay type: in vitro ADME; conditions: recombinant Bactosomes, 10 minutes
Protocol: as §1, §2, §3, §4

CYP3A4 = CYP3A4 (Homo sapiens (Human), UniProt P08684); assay: as above; assay type: in vitro ADME; conditions: recombinant Bactosomes, 10 minutes
Protocol: as §1, §2, §3, §4

hERG = hERG (Homo sapiens (Human), UniProt Q12809); assay: hERG Ion Channel binding assay (3H astemizole displacement); conditions: human, membranes of HEK293 cells stably expressing hERG, pH 7.4, probe 3H astemizole (1.5 nM); 30 μM; displacement of 3H astemizole, hERG-HEK293 membranes
Procedure, shortened: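 Membranes from stably transfected hERG-HEK293 cells incubated with 1.5 nM ³H-astemizole ± test compound in HEPES buffer pH 7.4 (0.1% BSA, 5 mM KCl, 130 mM NaCl) at 25° C for 60 min. Bound ligand measured by filtration and scintillation counting; reported as % displacement (0% none, 100% complete).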

[2] = pH 6.5, 16 hours, room temperature

Sequence of CYP2C9 (P11712 whole entry): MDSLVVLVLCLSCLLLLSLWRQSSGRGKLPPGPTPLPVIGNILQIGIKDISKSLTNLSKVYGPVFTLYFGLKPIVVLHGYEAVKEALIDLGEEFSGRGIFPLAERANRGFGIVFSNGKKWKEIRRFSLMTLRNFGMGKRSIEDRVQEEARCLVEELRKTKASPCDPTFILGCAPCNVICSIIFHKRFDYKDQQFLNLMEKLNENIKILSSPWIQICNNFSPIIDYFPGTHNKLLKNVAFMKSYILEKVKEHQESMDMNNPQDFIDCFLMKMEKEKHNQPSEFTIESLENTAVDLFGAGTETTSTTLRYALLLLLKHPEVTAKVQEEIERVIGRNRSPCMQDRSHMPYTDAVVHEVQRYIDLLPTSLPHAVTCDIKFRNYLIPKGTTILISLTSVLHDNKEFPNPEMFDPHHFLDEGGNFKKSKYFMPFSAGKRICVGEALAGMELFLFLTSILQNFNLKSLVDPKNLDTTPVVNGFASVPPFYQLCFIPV
Sequence of CYP3A4 (P08684 whole entry): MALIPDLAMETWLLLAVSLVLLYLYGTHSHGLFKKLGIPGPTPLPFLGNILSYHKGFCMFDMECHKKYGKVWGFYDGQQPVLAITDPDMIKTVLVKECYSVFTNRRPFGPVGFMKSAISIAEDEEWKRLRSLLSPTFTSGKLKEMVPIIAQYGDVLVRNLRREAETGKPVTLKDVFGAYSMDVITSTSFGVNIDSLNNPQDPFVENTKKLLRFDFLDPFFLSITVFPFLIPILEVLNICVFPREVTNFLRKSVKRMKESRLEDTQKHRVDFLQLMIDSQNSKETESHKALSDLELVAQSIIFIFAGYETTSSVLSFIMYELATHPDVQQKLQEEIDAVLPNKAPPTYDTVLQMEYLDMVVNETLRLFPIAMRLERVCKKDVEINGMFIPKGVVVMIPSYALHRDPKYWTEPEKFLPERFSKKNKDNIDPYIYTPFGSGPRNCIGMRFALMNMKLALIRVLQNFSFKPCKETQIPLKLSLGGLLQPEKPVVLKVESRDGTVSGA
Sequence of CYP2C19 (P33261 whole entry): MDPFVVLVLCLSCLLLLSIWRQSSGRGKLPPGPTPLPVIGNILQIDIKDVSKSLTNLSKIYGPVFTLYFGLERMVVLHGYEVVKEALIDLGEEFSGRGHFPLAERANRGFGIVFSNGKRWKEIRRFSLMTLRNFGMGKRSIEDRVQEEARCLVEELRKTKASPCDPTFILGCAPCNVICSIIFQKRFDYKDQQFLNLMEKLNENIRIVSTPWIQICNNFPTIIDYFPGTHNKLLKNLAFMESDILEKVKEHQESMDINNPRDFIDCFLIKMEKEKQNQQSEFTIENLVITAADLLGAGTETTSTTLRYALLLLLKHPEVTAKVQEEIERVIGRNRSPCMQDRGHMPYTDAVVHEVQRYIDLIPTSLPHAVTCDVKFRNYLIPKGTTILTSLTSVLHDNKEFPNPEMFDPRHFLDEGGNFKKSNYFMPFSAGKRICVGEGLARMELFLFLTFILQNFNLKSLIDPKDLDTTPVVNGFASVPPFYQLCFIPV
Sequence of CYP2D6 (P10635 whole entry): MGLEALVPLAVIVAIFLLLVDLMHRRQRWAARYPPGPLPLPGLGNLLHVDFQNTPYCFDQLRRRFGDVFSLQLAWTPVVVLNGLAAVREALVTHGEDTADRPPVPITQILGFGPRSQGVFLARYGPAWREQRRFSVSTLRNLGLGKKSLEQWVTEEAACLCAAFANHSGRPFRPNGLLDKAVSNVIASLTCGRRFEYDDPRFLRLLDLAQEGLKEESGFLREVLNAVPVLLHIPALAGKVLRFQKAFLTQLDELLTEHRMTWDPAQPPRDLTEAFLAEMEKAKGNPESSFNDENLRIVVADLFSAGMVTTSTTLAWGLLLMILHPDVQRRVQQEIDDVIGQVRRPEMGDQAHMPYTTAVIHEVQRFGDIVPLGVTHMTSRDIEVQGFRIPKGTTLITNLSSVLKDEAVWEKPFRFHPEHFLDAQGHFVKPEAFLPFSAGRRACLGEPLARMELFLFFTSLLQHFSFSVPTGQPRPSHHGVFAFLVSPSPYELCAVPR
Sequence of hERG (Q12809 whole entry): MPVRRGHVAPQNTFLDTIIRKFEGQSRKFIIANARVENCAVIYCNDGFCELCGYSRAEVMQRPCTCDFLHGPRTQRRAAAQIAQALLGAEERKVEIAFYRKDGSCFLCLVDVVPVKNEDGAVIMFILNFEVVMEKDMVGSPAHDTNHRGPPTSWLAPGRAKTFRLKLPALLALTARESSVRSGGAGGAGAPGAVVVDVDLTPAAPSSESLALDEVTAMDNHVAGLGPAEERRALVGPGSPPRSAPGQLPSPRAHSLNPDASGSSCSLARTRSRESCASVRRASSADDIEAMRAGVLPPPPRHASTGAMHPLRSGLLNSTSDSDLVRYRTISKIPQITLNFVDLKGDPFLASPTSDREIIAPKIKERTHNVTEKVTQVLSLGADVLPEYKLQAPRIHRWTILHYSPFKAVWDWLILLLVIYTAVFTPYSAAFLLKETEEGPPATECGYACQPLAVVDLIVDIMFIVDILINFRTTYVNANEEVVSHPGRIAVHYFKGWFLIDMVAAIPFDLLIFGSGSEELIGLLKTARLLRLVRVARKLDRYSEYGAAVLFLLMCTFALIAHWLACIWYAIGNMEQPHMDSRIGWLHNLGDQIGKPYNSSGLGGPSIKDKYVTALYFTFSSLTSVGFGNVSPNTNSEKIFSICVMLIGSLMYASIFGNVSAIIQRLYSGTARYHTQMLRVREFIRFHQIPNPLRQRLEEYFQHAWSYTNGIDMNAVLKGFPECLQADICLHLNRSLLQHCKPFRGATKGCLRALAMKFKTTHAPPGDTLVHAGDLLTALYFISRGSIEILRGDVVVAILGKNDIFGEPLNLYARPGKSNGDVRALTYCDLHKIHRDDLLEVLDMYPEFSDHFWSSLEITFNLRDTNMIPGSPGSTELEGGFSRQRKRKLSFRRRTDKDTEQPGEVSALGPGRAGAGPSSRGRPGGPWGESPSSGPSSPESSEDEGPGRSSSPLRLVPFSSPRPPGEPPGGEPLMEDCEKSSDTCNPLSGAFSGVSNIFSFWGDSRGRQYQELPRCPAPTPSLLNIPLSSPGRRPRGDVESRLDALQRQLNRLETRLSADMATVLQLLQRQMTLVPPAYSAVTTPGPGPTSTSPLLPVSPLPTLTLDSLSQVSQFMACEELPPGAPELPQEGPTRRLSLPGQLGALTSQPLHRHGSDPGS
Sequence of CYP1A2 (P05177 whole entry, canonical isoform): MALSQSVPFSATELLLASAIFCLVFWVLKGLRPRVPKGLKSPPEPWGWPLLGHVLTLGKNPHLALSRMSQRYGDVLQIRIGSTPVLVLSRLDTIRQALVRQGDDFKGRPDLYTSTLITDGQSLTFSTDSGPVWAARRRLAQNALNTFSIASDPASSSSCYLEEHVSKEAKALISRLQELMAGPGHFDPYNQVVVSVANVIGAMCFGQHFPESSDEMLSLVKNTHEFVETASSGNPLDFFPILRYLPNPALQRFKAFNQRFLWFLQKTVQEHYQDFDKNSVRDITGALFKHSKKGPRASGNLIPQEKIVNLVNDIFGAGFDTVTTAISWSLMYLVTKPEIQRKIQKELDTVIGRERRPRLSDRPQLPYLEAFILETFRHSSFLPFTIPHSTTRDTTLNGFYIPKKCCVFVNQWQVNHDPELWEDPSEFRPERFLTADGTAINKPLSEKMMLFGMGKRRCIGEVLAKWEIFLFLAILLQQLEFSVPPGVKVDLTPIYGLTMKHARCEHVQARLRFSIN

SMILES	pIC50 (CYP2C19)	pIC50 (CYP2C9)	pIC50 (CYP2D6)	pIC50 (CYP3A4)	solubility at 16 h [1, 2]	pIC50 (CYP1A2; human, 10 min, pH 7.4)	solubility (in words) [1]	Solubility [1, 2]	Solubility ([1]; pH 6.8)	pIC50 (CYP1A2)	inhibition at 60 min, 30 µM (hERG)
CC1(O)CCC(NS(=O)(=O)c2ccc(-c3ccc(F)cc3F)cc2)CC1 (stereo not shown) [ABD899, reference compound]	5.14	5.41	4.34	4.67	–	–	–	0.06 ^(3) mg/mL	0.13 mg/mL (≈ 341 µM)	< 4.60	–
CC(=O)N1CCC(CS(=O)(=O)c2ccc(-c3ccc(F)cc3F)cc2)CC1 [NASMP-01, 1-(4-(((2′,4′-Difluoro-[1,1′-biphenyl]-4-yl)sulfonyl)methyl)piperidin-1-yl)ethan-1-one]	< 4.30	< 4.30	< 4.30	< 4.30	75 µg/mL (≈ 191 µM)	< 4.30	–	–	–	–	14%
CC(=O)N1CCC(CS(=O)(=O)c2ccc(-c3ccc(Cl)cc3C#N)cc2)CC1 [NASMP-06, 4′-(((1-Acetylpiperidin-4-yl)methyl)sulfonyl)-4-chloro-[1,1′-biphenyl]-2-carbonitrile]	< 4.30	4.37	< 4.30	< 4.30	83 µg/mL (≈ 199 µM)	< 4.30	particularly good solubility	–	–	–	35%

Now from value to compound, other results behind:

pIC50 (CYP2C19)	pIC50 (CYP2C9)	pIC50 (CYP2D6)	pIC50 (CYP3A4)	solubility at 16 h [1, 2]	pIC50 (CYP1A2; human, 10 min, pH 7.4)	solubility (in words) [1]	SMILES	Solubility [1, 2]	Solubility ([1]; pH 6.8)	pIC50 (CYP1A2)	inhibition at 60 min, 30 µM (hERG)
< 4.30	< 4.30	< 4.30	< 4.30	62 µg/mL (≈ 149 µM)	< 4.30	particularly good solubility	CC(=O)N1CCC(CS(=O)(=O)c2ccc(-c3ccc(C#N)cc3Cl)cc2)CC1 [NASMP-05, 4′-(((1-Acetylpiperidin-4-yl)methyl)sulfonyl)-2-chloro-[1,1′-biphenyl]-4-carbonitrile]	–	–	–	23%
4.44	4.71	< 4.30	< 4.30	89 µg/mL (≈ 201 µM)	< 4.30	particularly good solubility	CC(=O)N1CCC(CS(=O)(=O)c2ccc(-c3ccc(C(F)(F)F)cc3F)cc2)CC1 [NASMP-07, 1-(4-(((2′-Fluoro-4′-(trifluoromethyl)-[1,1′-biphenyl]-4-yl)sulfonyl)methyl)piperidin-1-yl)ethan-1-one]	–	–	–	79%
4.75	< 4.30	< 4.30	4.35	28 µg/mL (≈ 71.2 µM)	< 4.30	–	CC(=O)N1CCC(CS(=O)(=O)c2ccc(-c3c(F)cccc3F)cc2)CC1 [NASMP-09, 1-(4-(((2′,6′-Difluoro-[1,1′-biphenyl]-4-yl)sulfonyl)methyl)piperidin-1-yl)ethan-1-one]	–	–	–	7%
< 4.30	4.81	4.34	< 4.30	68 µg/mL (≈ 147 µM)	< 4.30	particularly good solubility	CC(=O)N1CCC(CS(=O)(=O)c2ccc(-c3ccc(F)cc3F)cc2C(F)(F)F)CC1 [NASMP-12, 1-(4-(((2′,4′-Difluoro-3-(trifluoromethyl)-[1,1′-biphenyl]-4-yl)sulfonyl)methyl)piperidin-1-yl)ethan-1-one]	–	–	–	35%
< 4.30	4.67	< 4.30	< 4.30	73 µg/mL (≈ 179 µM)	< 4.30	particularly good solubility	CCC(=O)N1CCC(CS(=O)(=O)c2ccc(-c3ccc(F)cc3F)cc2)CC1 [NASMP-15, 1-(4-(((2′,4′-Difluoro-[1,1′-biphenyl]-4-yl)sulfonyl)methyl)piperidin-1-yl)propan-1-one]	–	–	–	45%
